From patent US6407058B1, “Modifying the permeability of physiological barriers” (Eisai Co., Limited, priority 1996, dated 2002)

Tests used:
[1] = test system: p100/p120; test: immunofluorescence localisation of p100/p120, MDCK I cells; format: cell-based; conditions: PDB-treated vs control
Text: It has been shown that although some of the p100/p120 in cells is associated with adherens junctions, there is also a large pool that is not complexed with cadherins (at least by immunoprecipitation analysis). […] This procedure served to isolate only that portion of the cellular p100/p120 that associates with the cadherins. Following electrophoresis, and transfer to nitrocellulose, the p100 and p120 present in E-cadherin immunoprecipitates were detected by immunoblotting (Example 9A). […] In both cases, p100/p120 is shown to be present at regions of cell—cell contact.
Cells were fixed at room temperature for 20 minutes in 3% paraformaldehyde made up in PBS containing 0.5 mM CaCl2 and 0.5 mM MgSO4. Fixed cells were washed and then permeabilized by incubation with 0.5% Triton X-100 in PBS for 10 minutes. After washing, the cells were incubated for 30 minutes in PBS containing 10% calf serum and 0.1 M lysine, pH 7.4. Incubation with p120 antibody (0.5 μg/ml) was in PBS containing 10% calf serum for 1 hour. After washing, the cells were then incubated for 60 minutes with a 1:100 dilution of FITC-conjugated anti-mouse IgG (Jackson Immunoresearch Labs), in PBS containing 10% calf serum. After washing, the filters were mounted with Citifluor (Citifluor Products, Canterbury, UK) and examined using a Nikon Microphot-FXA fluorescence microscope fitted with 40× and 60× objectives. […]

[2] = test system: p100/p120; test: p100/p120 electrophoretic mobility, MDCK strain II cells; format: cell-based; conditions: 200 nM PDB, 30 minutes
Procedure: p100 and p120 electrophoretic mobility is affected by PDB in a number of different epithelial cell lines. LLC-PK1, (a porcine kidney cell line), MDCK strain II cells and gut-derived Caco-2 cells were treated with or without 200 nM PDB for 30 minutes, lysed into Laemmli sample buffer, separated by electrophoresis and analysed by immunoblotting.
MDCK strain I and II cells were provided by Barry Gumbiner (memorial Sloan-Kettering Cancer Center, NY). LLC-PK1 and Caco-2 cells were obtained from the European Collection of Animal Cell Cultures. All cells were maintained at 37° C. under 5% CO2 in humidified air. MDCK strain I and II cells were maintained in MEM containing 10% FCS, 100 U/ml penicillin, 100 μg/ml streptomycin and 2 mM L-glutamine. Caco-2 cells were maintained in MEM containing 15% FCS, 1% non-essential amino acids and 1 μg/ml bovine insulin (Sigma I-6634). LLC-PK1 cells were grown in M199 (Gibco), 10% FCS, 100 U/ml penicillin, 100 μg/ml streptomycin and 2 mM L-glutamine. For whole cell lysate analysis, 10^5 cells were plated on 6.5 mm diameter, 0.4 μm, polycarbonate Transwell filters from Costar, in 0.25 ml of medium. The basolateral chamber contained 0.75 ml of medium. For immunoprecipitation, 5×10^5 cells were plated onto 24 mm Transwell filters, in 2 ml of medium, with 3 ml of medium in the lower chamber. Cells were used 4-7 days after plating. […]

CCCC(=O)O[C@@H]1[C@@H](C)[C@@]2(O)[C@@H](C=C(CO)C[C@]3(O)C(=O)C(C)=C[C@@H]23)[C@@H]2C(C)(C)[C@]12OC(=O)CCC [PDB, Phorbol-12,13-dibutyrate]
localisation of p100 and p120 [1]: no change in the localisation
migration of p100 and p120 [2]: increased markedly
